Measurements: PMC5760531, “Action Potential Recording and Pro-arrhythmia Risk Analysis in Human Ventricular Trabeculae” (Frontiers in Physiology, 2018)

Test system: human ventricular trabeculae
Assay: Action potential recording and pro-arrhythmic score analysis in human ventricular trabeculae (hVT);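 further: sharp microelectrode action potential recordings at 37°C in Tyrode-perfused trabeculae, 4 cumulative concentrations each applied 31 min, values averaged over last 30 APs, vehicle 0.1% DMSO as control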
[1] = 1Hz, 1-FOLD free ETPC (0.009µM)
[2] = 1Hz, 11-FOLD free ETPC (0.009µM)
[3] = 1Hz, 111-FOLD free ETPC (0.009µM)
[4] = 1Hz, 1111-FOLD free ETPC (0.009µM)
[5] = 2Hz, 1-FOLD free ETPC (0.009µM)
[6] = 2Hz, 11-FOLD free ETPC (0.009µM)
[7] = 2Hz, 111-FOLD free ETPC (0.009µM)
[8] = 2Hz, 1111-FOLD free ETPC (0.009µM)

## COc1c(N2C[C@@H]3CCCN[C@@H]3C2)c(F)cc2c(=O)c(C(=O)O)cn(C3CC3)c12 [MOXIFLOXACIN, Moxifloxacin]
At 91-fold hETPC
  EAD detection: only detected in one trabecula

## CC(C)(C)c1ccc(C(O)CCCN2CCC(C(O)(c3ccccc3)c3ccccc3)CC2)cc1 (stereo not shown) [TERFENADINE, Terfenadine]
[1]
  AMAX: 113
  AMAX percentage change compared to vehicle control: 1%
  APD30: 148
  APD30 percentage change compared to vehicle control: 4%
  APD50: 199
  APD50 percentage change compared to vehicle control: 3%
  APD90: 278
  APD90 percentage change compared to vehicle control: 1%
  Alternans: 0.70
  Alternans percentage change compared to vehicle control: 53%
  Beat Escape: 0
  Beat Escape percentage change compared to vehicle control: 0%
  EADs: 0
  EADs percentage change compared to vehicle control: 0%
  ERP: 0.45
  ERP percentage change compared to vehicle control: -2%
  Max Dispersion: 4.48
  Max Dispersion percentage change compared to vehicle control: 60%
  RMP: -89
  RMP percentage change compared to vehicle control: 1%
  Refractoriness Escape: 0
  Refractoriness Escape percentage change compared to vehicle control: 0%
  STV: 0.50
  STV percentage change compared to vehicle control: 72%
  Triangulation: 130
  Triangulation percentage change compared to vehicle control: -2%
[2]
  AMAX: 109
  AMAX percentage change compared to vehicle control: -1%
  APD30: 152
  APD30 percentage change compared to vehicle control: 6%
  APD50: 203
  APD50 percentage change compared to vehicle control: 4%
  APD90: 286
  APD90 percentage change compared to vehicle control: 3%
  Alternans: 0.62
  Alternans percentage change compared to vehicle control: 35%
  Beat Escape: 0
  Beat Escape percentage change compared to vehicle control: 0%
  EADs: 0
  EADs percentage change compared to vehicle control: 0%
  ERP: 0.44
  ERP percentage change compared to vehicle control: -3%
  Max Dispersion: 2.80
  Max Dispersion percentage change compared to vehicle control: 0%
  RMP: -86
  RMP percentage change compared to vehicle control: -2%
  Refractoriness Escape: 0
  Refractoriness Escape percentage change compared to vehicle control: 0%
  STV: 0.45
  STV percentage change compared to vehicle control: 40%
  Triangulation: 134
  Triangulation percentage change compared to vehicle control: 0%
[3]
  AMAX: 109
  AMAX percentage change compared to vehicle control: -2%
  APD30: 148
  APD30 percentage change compared to vehicle control: 4%
  APD50: 200
  APD50 percentage change compared to vehicle control: 3%
  APD90: 284
  APD90 percentage change compared to vehicle control: 2%
  Alternans: 0.52
  Alternans percentage change compared to vehicle control: 12%
  Beat Escape: 0
  Beat Escape percentage change compared to vehicle control: 0%
  EADs: 0
  EADs percentage change compared to vehicle control: 0%
  ERP: 0.45
  ERP percentage change compared to vehicle control: 0%
  Max Dispersion: 2.43
  Max Dispersion percentage change compared to vehicle control: -13%
  RMP: -85
  RMP percentage change compared to vehicle control: -3%
  Refractoriness Escape: 0
  Refractoriness Escape percentage change compared to vehicle control: 0%
  STV: 0.39
  STV percentage change compared to vehicle control: 30%
  Triangulation: 135
  Triangulation percentage change compared to vehicle control: 0%
[4]
  AMAX: 110
  AMAX percentage change compared to vehicle control: 0%
  APD30: 140
  APD30 percentage change compared to vehicle control: -2%
  APD50: 192
  APD50 percentage change compared to vehicle control: -2%
  APD90: 277
  APD90 percentage change compared to vehicle control: 0%
  Alternans: 0.60
  Alternans percentage change compared to vehicle control: 31%
  Beat Escape: 0
  Beat Escape percentage change compared to vehicle control: 0%
  EADs: 0
  EADs percentage change compared to vehicle control: 0%
  ERP: 0.46
  ERP percentage change compared to vehicle control: 2%
  Max Dispersion: 3.70
  Max Dispersion percentage change compared to vehicle control: 32%
  RMP: -87
  RMP percentage change compared to vehicle control: -1%
  Refractoriness Escape: 0
  Refractoriness Escape percentage change compared to vehicle control: 0%
  STV: 0.44
  STV percentage change compared to vehicle control: 56%
  Triangulation: 137
  Triangulation percentage change compared to vehicle control: 2%
[5]
  AMAX: 109
  AMAX percentage change compared to vehicle control: 2%
  APD30: 107
  APD30 percentage change compared to vehicle control: 8%
  APD50: 151
  APD50 percentage change compared to vehicle control: 6%
  APD90: 228
  APD90 percentage change compared to vehicle control: 2%
  Alternans: 1.31
  Alternans percentage change compared to vehicle control: 24%
  Beat Escape: 0
  Beat Escape percentage change compared to vehicle control: 0%
  EADs: 0
  EADs percentage change compared to vehicle control: 0%
  ERP: 0.48
  ERP percentage change compared to vehicle control: -3%
  Max Dispersion: 5.60
  Max Dispersion percentage change compared to vehicle control: 14%
  RMP: -87
  RMP percentage change compared to vehicle control: 1%
  Refractoriness Escape: 0
  Refractoriness Escape percentage change compared to vehicle control: 0%
  STV: 0.91
  Triangulation: 120
  Triangulation percentage change compared to vehicle control: -2%
[6]
  AMAX: 108
  AMAX percentage change compared to vehicle control: 2%
  APD30: 110
  APD30 percentage change compared to vehicle control: 11%
  APD50: 153
  APD50 percentage change compared to vehicle control: 7%
  APD90: 231
  APD90 percentage change compared to vehicle control: 4%
  Alternans: 0.97
  Alternans percentage change compared to vehicle control: -8%
  Beat Escape: 0
  Beat Escape percentage change compared to vehicle control: 0%
  EADs: 0
  EADs percentage change compared to vehicle control: 0%
  ERP: 0.47
  ERP percentage change compared to vehicle control: -6%
  Max Dispersion: 4.40
  Max Dispersion percentage change compared to vehicle control: -11%
  RMP: -86
  RMP percentage change compared to vehicle control: -1%
  Refractoriness Escape: 0
  Refractoriness Escape percentage change compared to vehicle control: 0%
  STV: 0.66
  Triangulation: 121
  Triangulation percentage change compared to vehicle control: -2%
[7]
  AMAX: 109
  AMAX percentage change compared to vehicle control: 2%
  APD30: 108
  APD30 percentage change compared to vehicle control: 10%
  APD50: 154
  APD50 percentage change compared to vehicle control: 7%
  APD90: 234
  APD90 percentage change compared to vehicle control: 4%
  Alternans: 1.28
  Alternans percentage change compared to vehicle control: 21%
  Beat Escape: 0
  Beat Escape percentage change compared to vehicle control: 0%
  EADs: 0
  EADs percentage change compared to vehicle control: 0%
  ERP: 0.48
  ERP percentage change compared to vehicle control: -2%
  Max Dispersion: 5.53
  Max Dispersion percentage change compared to vehicle control: 12%
  RMP: -85
  RMP percentage change compared to vehicle control: -2%
  Refractoriness Escape: 0
  Refractoriness Escape percentage change compared to vehicle control: 0%
  STV: 0.89
  Triangulation: 126
  Triangulation percentage change compared to vehicle control: 0%
[8]
  AMAX: 108
  AMAX percentage change compared to vehicle control: 2%
  APD30: 105
  APD30 percentage change compared to vehicle control: 5%
  APD50: 150
  APD50 percentage change compared to vehicle control: 4%
  APD90: 233
  APD90 percentage change compared to vehicle control: 3%
  Alternans: 0.96
  Alternans percentage change compared to vehicle control: -10%
  Beat Escape: 0
  Beat Escape percentage change compared to vehicle control: 0%
  EADs: 0
  EADs percentage change compared to vehicle control: 0%
  ERP: 0.48
  ERP percentage change compared to vehicle control: -3%
  Max Dispersion: 3.10
  Max Dispersion percentage change compared to vehicle control: -37%
  RMP: -85
  RMP percentage change compared to vehicle control: -2%
  Refractoriness Escape: 0
  Refractoriness Escape percentage change compared to vehicle control: 0%
  STV: 0.71
  Triangulation: 128
  Triangulation percentage change compared to vehicle control: 3%
